Values quoted from earlier work as cited in patent US9757374B2, “Aripiprazole compositions and methods for its transdermal delivery” (Aequus Pharmaceuticals Inc., priority 2010, dated 2017).

SMILES: O=C1CCc2ccc(OCCCCN3CCN(c4cccc(Cl)c4Cl)CC3)cc2N1 [ARPZ, Aripiprazole]
- solubility in water: practically insoluble
